The values below come from US6916797B2, “α-arylethylpiperazine derivatives as neurokinin antagonists” (UCB, S.A., priority 2000, dated 2005).

Experiment [1] addresses T1, NK1 receptors (Homo sapiens, UniProt P25103). The conditions noted are these: cited from earlier work.
The test system of experiment [2] is verapamil-sensitive L-type Ca2+ binding site. The settings on record: cited from earlier work.
The conditions of experiment [3]: in vivo; cited from earlier work.
Experiment [4] relates to verapamil binding site of the L-type calcium channel. The experiment in a line: Inhibition of [3H]D888 binding to the verapamil binding site of the L-type calcium channel (rat cerebral cortex membranes). The settings on record: 10 μmol/l of test substance. The method, then: 200-250 g male Sprague-Dawley rats are sacrificed by decapitation. Cerebral cortices are quickly dissected on ice and homogenized in a 20 mmol/l Tris-HCl (pH 7.4) buffer containing 250 mmol/l sucrose (buffer A). The homogenate is centrifuged at 30,000 g for 15 min at 4° C. The resulting crude membrane pellet is resuspended in a 50 mmol/l Tris-HCl (pH 7.4) buffer and incubated 15 min at 37° C. before being centrifuged at 30,000×g for 15 min at 4° C. After two more washes under the same conditions, the final pellet is resuspended in buffer A at a protein concentration ranging from 15 to 25 mg/ml and stored in liquid nitrogen.
Binding experiments are essentially performed according to Reynolds J. et al., J. Pharmacol. Exp. Ther. (1986), 237, 731-738. (1986) with slight modifications.
Membranes (120-175 μg/assay) are incubated at 25° C. for 60 min in 0.5 ml of a 50 mmol/l Tris-HCl buffer (pH 7.4) containing 2 mmol/l MgCl2, 0.2 to 0.4×10-9 mol/l of [^3H]D888 (85 Ci/mmol; Amersham, Belgium) and 10 μmol/l of the test substance. The non specific binding (NSB) is defined as the residual binding observed in the presence 10 μM verapamil. Membrane-bound and -free radioligands are separated by rapid filtration through glass fiber filters (equivalent to Whatman GF/C or GF/B; VEL, Belgium) presoaked in 0.1% polyethyleneimine to reduce non specific binding. Samples and filters are rinsed by at least 6 ml of 50 mmol/l Tris-HCl (pH 7.4) buffer. […] The radioactivity trapped onto the filters is counted by liquid scintillation in a β-counter.
The inhibition of the radioligand specific binding is calculated as follows: [formula] • where BI and Bo represent the binding observed in the presence and absence of the test substance respectively; and • BNS is the non specific binding.
Data analysis is performed by a computerized non linear curve fitting method using a set of equations describing several binding models assuming competitive interactions between ligands (Weiland G. A. and P. B. Molinoff Life Science (1981), 29, 313-330; Molinoff P. et al. (1981) Life Sci., 29, 427-443).

Experiment [5] relates to isolated rat aorta contracted by 100 mM KCl. The experiment in a line: Effect of compound on isolated rat aorta contracted by 100 mM KCl. The settings on record: 10^−5 M; contraction by 100 mM KCl. How it is done:
Rat thoracic aorta depolarized by 100 mM KCl develops a contraction induced by an influx of Ca^2+ into the smooth muscle cell. An inhibition of this contraction could predict a Ca^2+ antagonist activity.
The method was adapted from Polster P. et al., J. Pharmacol. Exp. Ther. (1990), 255, 593: rings of thoracic aorta were prepared from male Wistar rats (250-400 g) and mounted under an optimal resting tension of 2 g in 10 ml organ baths containing modified Krebs' solution (NaCl 112 mM, NaHCO3 25 mM, KCl 5 mM, MgSO4 1.2 mM, CaCl2 2.5 mM, KH2PO4 1 mM and glucose 11.5 mM, pH 7.4). The bathing solution was maintained at a temperature of 37° C. and gassed with 95% O2 and 5% CO2. Isometric contractions were measured with a force transducer connected to an amplifier. A computer system was used to control data acquisition and fluid circulation through electrovalves. Drugs were manually injected into the bath.
Each ring was allowed to equilibrate for 60 min in the modified Krebs' solution. […] After obtaining two reproducible control contractions, a 3rd contraction was induced and the test compound was added to the bathing medium for 2 hours. Only preparation in which the contractions were matched were used. Each tissue received only one concentration of the test compound. Appropriate control experiments were conducted in order to test the effect of the solvant.
To normalize data, the change in tension due to the drug was compared to the change of tension due to the solvant and expressed as percentage of the induced relaxation of the initial contraction. Raw data were processed by a computer system and the pD′2 value was calculated following the method of Van Rossum J. M. et al., Arch. Int. Pharmacodyn. Ther. (1963), 143, 299.

Experiment [6] has as its target T1, NK1 receptors. The experiment in a line: Binding of [4,5-3H-Leu10] substance P to human recombinant NK1 receptors expressed in CHO cell membranes. The conditions noted are these: pIC50 = -log IC50, concentration inhibiting by 50% the specific binding of [4,5-3H] substance P; tested as the free base/salt given in c1. On the set-up: host or cells: CHO cells.
For experiment [7] the following is noted: after oral administration; cited from earlier work.

T1 sequence (P25103 whole entry): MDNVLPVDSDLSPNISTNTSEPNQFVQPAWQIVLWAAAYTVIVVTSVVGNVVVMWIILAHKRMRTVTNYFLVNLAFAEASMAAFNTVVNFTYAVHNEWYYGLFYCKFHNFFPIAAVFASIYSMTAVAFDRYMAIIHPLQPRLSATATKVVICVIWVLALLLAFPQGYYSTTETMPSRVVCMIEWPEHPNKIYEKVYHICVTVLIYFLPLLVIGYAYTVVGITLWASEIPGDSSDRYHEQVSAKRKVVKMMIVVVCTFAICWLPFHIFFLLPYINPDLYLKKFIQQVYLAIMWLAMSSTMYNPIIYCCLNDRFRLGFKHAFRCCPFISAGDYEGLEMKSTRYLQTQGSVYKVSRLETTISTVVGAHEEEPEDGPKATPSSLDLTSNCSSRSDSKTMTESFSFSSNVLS

Consider `COc1ccccc1CN[C@H]1C2CCN(CC2)[C@H]1C(c1ccccc1)c1ccccc1` [CP-96,345], for which the “selectivity for NK1 receptors with respect to NK2 and NK3 receptors” value on NK1 receptors [1] is recorded as “good selectivity”. For the same compound, the “affinity for / interaction with the verapamil-sensitive L-type Ca2+ binding site” value in experiment [2] is “significant affinity”.
Take `COc1ccccc1CN[C@H]1CCCN[C@H]1c1ccccc1` [CP-99,994]: the “selectivity for NK1 receptors with respect to NK2 and NK3 receptors” value on NK1 receptors [1] is “good NK1 selectivity”. In experiment [2], the “affinity for / interaction with the verapamil-sensitive L-type Ca2+ binding site” value was “lower interaction”. Besides, in experiment [3], the “outcome of first phase II clinical trials for asthma” value is “unsuccessful”.
Take `FC(F)(F)c1cc(COC[C@@H](c2ccccc2)N2CCN(CCCCc3nnn[nH]3)CC2)cc(C(F)(F)F)c1` [Compound 299]: in experiment [4], the “% inhibition of [3H]D888 binding to the verapamil binding site of the L-type calcium channel” value (“% inhibition … of the L-type calcium channel” below) is “+ (+: inhibition comprised between 20 and 50%)”. In experiment [5], the “Result: effect of compound on isolated rat aorta contracted by 100 mM KCl” value (from here on “Result: effect of compound”) is “inactive à 10^−5 M”. The IC50 on NK1 receptors [6] was 15.8 nM.
As to `FC(F)(F)c1cc(COCC(c2ccccc2)N2CCN(CCOCc3nnn[nH]3)CC2)cc(C(F)(F)F)c1` (stereo not shown) [Compound 300], the “% inhibition … of the L-type calcium channel” value in experiment [4] was “+ (+: inhibition comprised between 20 and 50%)”. For the same compound, the “Result: effect of compound” value in experiment [5] was “inactive à 10^−5 M”. In addition, the IC50 on NK1 receptors [6] is 31.6 nM.
`Fc1ccc(C(COCc2cc(C(F)(F)F)cc(C(F)(F)F)c2)N2CCN(CCCCc3nnn[nH]3)CC2)cc1` (stereo not shown) [Compound 301]: the “% inhibition … of the L-type calcium channel” value in experiment [4] is “+ (+: inhibition comprised between 20 and 50%)”. Further, the “Result: effect of compound” value in experiment [5] is “inactive à 10^−5 M”. In addition, the IC50 on NK1 receptors [6] is 15.8 nM.
Consider `CC(OCC(c1ccccc1)N1CCN(CCCCc2nnn[nH]2)CC1)c1cc(C(F)(F)F)cc(C(F)(F)F)c1` (stereo not shown) [Compound 303], for which the “% inhibition … of the L-type calcium channel” value in experiment [4] was “+ (+: inhibition comprised between 20 and 50%)”. Besides, the “Result: effect of compound” value in experiment [5] is “inactive à 10^−5 M”. For the same compound, the IC50 at NK1 receptors [6] is 5.01 nM.
For `O=C(O)C1CCC(N2CCN(C(COCc3cc(C(F)(F)F)cc(C(F)(F)F)c3)c3ccccc3)CC2)CC1` (stereo not drawn) [Compound 312, cis- or trans-4-{4-[2-(3,5-Bis-trifluoromethyl-benzyloxy)-1-phenyl-ethyl]-piperazin-1-yl}-cyclohexanecarboxylic acid], in experiment [4], the “% inhibition … of the L-type calcium channel” value was 0 (0: inhibition < 20%). The “Result: effect of compound” value in experiment [5] is “inactive à 10^−5 M”. Besides, the IC50 on NK1 receptors [6] was 25.1 nM.
Regarding `COc1ccccc1CC(=N)N1C[C@@H]2C(=O)CCC(c3ccccc3)(c3ccccc3)[C@@H]2C1` [RP-67,580], the NK1 affinity result at NK1 receptors [1] is on record as “some NK1 affinity”.
On to `COc1ccccc1[C@H](C)C(=O)N1C[C@@H]2[C@H](C1)C(c1ccccc1)(c1ccccc1)CC[C@@]2(O)c1ccccc1OC` [RP-100,893], for which the “activity in clinical trials for the treatment of migraine” value in experiment [7] was “no better than placebo activity”.

The IC50 is the concentration that inhibits the measured activity by half.
